Test results reported in patent US20260174739A1 (priority 2022, published 2026).

How the values were obtained:
[1] = biological target: Sigma1 receptor (Homo sapiens, UniProt Q99720); assay: Sigma receptor affinity assay ([3H]-DTG binding), Sigma1R
Experimental: (§1) Cell membrane: the membrane protein adopted in the experiment was extracted from an HEK293 cell strain stably expressing Sigmal receptor and an HEK293 cell strain stably expressing Sigma2 receptor, which were constructed by WuXi AppTec.
(§2) • 1) Detection buffer: 50 mM Tris-HCl, pH=7.4, stored at 4° C. • 2) Sigma 1R assay plate washing buffer: 50 mM Tris-HCl, pH=7.4, stored at 4° C.; sigma2R assay plate washing buffer: 50 mM Tris-HCl, 100 mM NaCl, pH=7.4, stored at 4° C. • 3) The compounds were diluted to each working concentration: 4-fold serial gradient dilutions for 8 concentrations.
The cell membrane solution and isotope solution were prepared with the pre-cooled detection buffer, with the following configuration information: the membrane concentration was 10 μg/well, and the final concentration of isotopic ligand [3H]-DTG was 5 nM. • 5) After the test compound and the positive control were diluted to the working concentration, 1 μL was added to each well of the assay plate. […] […]. The affinity inhibition constant Ki was calculated using the Cheng Prusoff equation:

[2] = biological target: human DAT (Homo sapiens, UniProt Q01959); assay: DAT transporter inhibitory activity test (neurotransmitter transporter uptake assay kit); format: cell-based; details: DAT stably transfected HEK cells; read-out: DAT (IC50)
Chain of human DAT (Q01959 whole entry): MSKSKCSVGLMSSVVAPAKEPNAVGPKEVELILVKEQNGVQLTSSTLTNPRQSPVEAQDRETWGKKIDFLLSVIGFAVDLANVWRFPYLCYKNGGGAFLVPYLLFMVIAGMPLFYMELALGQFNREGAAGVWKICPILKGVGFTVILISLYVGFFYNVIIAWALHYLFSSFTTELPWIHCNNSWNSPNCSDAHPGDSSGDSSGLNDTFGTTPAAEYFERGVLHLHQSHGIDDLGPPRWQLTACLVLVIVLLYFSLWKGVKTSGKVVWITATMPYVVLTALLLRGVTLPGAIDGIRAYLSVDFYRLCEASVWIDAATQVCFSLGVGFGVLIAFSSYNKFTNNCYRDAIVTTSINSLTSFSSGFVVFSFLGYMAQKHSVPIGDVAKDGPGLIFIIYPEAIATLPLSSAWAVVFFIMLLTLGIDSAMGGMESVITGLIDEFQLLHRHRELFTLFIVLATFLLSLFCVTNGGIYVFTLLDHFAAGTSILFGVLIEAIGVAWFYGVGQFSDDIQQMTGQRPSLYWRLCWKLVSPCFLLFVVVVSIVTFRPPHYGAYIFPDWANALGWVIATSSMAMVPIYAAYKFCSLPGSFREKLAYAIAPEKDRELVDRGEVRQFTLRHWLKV

[3] = biological target: T1, NMDA receptor (N-methyl-D-aspartate receptor, NR1/2A) (Homo sapiens, UniProt Q05586+Q12879); assay: NMDA receptor antagonistic activity assay (whole cell manual patch clamp, channel currents); format: cell-based; details: HEK293 cells transiently expressing hNR1/2A; current evoked by 100 μM glutamic acid + 100 μM glycine at -70 mV; read-out: NMDAR antagonistic activity (IC50)
T1 construct: T2A self-cleaving peptide (linker between NR1 and 2A) (C)
T1 sequence (Q12879 23-1464, other chains not shown): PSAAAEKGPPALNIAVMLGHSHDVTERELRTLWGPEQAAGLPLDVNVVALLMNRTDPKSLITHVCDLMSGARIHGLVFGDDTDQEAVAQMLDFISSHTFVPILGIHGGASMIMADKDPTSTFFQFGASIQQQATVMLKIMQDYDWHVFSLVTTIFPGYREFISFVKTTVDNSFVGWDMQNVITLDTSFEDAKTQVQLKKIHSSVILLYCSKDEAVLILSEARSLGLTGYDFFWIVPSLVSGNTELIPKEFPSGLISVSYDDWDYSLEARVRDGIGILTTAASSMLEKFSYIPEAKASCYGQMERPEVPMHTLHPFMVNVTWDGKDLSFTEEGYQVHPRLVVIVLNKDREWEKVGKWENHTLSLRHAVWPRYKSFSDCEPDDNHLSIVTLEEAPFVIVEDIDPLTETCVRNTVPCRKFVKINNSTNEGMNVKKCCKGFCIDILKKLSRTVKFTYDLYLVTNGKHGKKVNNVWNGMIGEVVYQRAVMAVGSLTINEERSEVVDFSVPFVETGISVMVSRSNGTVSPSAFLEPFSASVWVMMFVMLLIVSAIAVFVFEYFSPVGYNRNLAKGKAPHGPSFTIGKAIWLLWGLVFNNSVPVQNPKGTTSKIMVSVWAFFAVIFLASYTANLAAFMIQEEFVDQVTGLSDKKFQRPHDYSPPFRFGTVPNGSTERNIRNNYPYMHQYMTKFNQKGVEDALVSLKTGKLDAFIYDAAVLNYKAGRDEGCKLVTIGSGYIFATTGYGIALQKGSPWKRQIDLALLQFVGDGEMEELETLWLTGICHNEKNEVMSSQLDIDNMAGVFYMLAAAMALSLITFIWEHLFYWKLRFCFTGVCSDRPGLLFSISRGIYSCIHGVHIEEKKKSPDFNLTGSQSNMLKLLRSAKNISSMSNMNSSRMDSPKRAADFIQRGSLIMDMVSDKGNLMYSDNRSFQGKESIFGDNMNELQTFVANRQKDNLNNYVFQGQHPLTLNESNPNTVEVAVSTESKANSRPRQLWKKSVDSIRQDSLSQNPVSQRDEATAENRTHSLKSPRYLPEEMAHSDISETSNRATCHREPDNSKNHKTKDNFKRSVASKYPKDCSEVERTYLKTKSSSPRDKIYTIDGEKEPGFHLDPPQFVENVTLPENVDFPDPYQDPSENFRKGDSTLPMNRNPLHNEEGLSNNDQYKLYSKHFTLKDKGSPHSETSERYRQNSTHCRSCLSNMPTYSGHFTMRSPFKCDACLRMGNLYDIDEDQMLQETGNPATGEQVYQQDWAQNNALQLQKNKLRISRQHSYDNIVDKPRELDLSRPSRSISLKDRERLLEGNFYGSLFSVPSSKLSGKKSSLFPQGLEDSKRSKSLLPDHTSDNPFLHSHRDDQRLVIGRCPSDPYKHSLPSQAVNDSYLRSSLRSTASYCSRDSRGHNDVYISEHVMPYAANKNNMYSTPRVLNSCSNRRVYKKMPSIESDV
Experimental: The effect of the compounds on NMDA receptor (N-methyl-D-aspartate receptor, NR1/2A) channel currents was tested using the electrophysiological whole cell manual patch clamp method.
The HEK293 cell line was cultured in DMEM medium containing 10% fetal bovine serum at 37° C. with 5% carbon dioxide.
Preparation of compound: on the day of testing, the stock solution of the compound of the present disclosure was diluted with DMSO to an intermediate concentration, which was then further diluted with an extracellular solution (containing 100 μM glutamic acid+100 µM glycine) to obtain the final concentration to be tested. […] Electrophysiological recording
Currents evoked by 100 μM glutamic acid (containing 100 μM glycine) were recorded at room temperature from HEK293 cells transiently expressing NMDA receptor channels using the whole-cell patch clamp technique. Glass microelectrodes were formed by pulling a glass electrode blank (BF150-86-10, Sutter) using a puller. The tip resistance after perfusion of electrode internal solution was about 2-5 MΩ. The glass microelectrodes could be connected to a patch clamp amplifier after being inserted into amplifier probes. […] After whole-cell recording was achieved, the cell was clamped at −70 mV. A gravity-driven rapid administration system was used to apply 100 μM glutamic acid (containing 100 μM glycine) to induce the channel current. After the current stabilized, the 100 μM glutamic acid (containing 100 μM glycine) was administered, and changes in current amplitude were observed. The compounds were administered sequentially from low to high concentration, followed by a final administration of 100 μM glutamic acid (containing 100 μM glycine). Each test concentration of the compound was applied for at least 20 s, and at least 2 cells (n≥2) were tested for each concentration. • d. Data processing
Data were analyzed using pClamp, GraphPad Prism 8, and Excel software.
The IC50 of the compound was calculated using the GraphPad Prism 8 software by equation fitting as follows:
[formula] • where X is the Log value of the test concentration of the test sample, Y is the inhibition percentage at the corresponding concentration, and Bottom and Top are the minimum and maximum inhibition percentages, respectively.

[4] = biological target: Sigma2 receptor (Homo sapiens, UniProt Q5BJF2); assay: Sigma receptor affinity assay ([3H]-DTG binding), Sigma2R; details: HEK293 membranes stably expressing Sigma2 receptor, [3H]-DTG 5 nM; read-out: Sigma2R (Ki)
Chain of Sigma2 receptor (Q5BJF2 whole entry, species assumed): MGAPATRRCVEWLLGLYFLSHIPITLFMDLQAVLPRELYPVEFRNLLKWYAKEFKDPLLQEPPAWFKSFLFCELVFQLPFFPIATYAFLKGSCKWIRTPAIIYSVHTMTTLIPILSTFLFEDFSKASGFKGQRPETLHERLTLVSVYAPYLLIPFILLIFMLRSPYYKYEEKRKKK
Experimental: as §1, §2
The affinity inhibition constant Ki was calculated using the Cheng Prusoff equation: […]

Chain of Sigma1 receptor (Q99720 whole entry): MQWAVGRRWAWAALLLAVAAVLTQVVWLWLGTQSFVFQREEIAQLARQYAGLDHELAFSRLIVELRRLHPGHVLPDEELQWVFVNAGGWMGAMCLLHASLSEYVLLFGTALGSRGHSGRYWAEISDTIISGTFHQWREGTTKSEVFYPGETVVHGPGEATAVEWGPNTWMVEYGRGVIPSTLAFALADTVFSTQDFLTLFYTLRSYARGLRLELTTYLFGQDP

Compound	Ki [1]	IC50 [2]	IC50 [3]	Ki [4]
CNC1(c2ccccc2)CCc2sccc2C1 (racemic) [rac-A25, N-methyl-5-phenyl-4,5,6,7-tetrahydrobenzothiophen-5-amine]	280 nM	–	–	–
c1ccc([C@@]2(N3CCCCC3)CCc3[nH]ncc3C2)cc1 [R-A70]	–	8.4 µM	16 µM	–
CN[C@@]1(c2ccccc2)CCc2ncsc2C1 [S-A13]	–	–	2.5 µM	257 nM
c1ccc([C@]2(N3CCCCC3)CCc3[nH]ncc3C2)cc1 [S-A70]	–	–	0.84 µM	–
N^4-methyl-4-phenyl-4,5,6,7-tetrahydrobenzothiazole-2,4-diamine [rac-A39]	–	–	12 µM	–
